From patent US10233186B2, “Inhibitors of activin receptor-like kinase” (BLUEPRINT MEDICINES CORPORATION, priority 2016, dated 2019)

What was measured:
human ALK2 R206H = molecular target: T1, human ALK2 R206H (Homo sapiens, UniProt Q04771, R206H); test: Cell-based ALK2-R206H cell activity assay (Smad1-Ser463/Ser465 phosphorylation by AlphaLISA in HEK293-ALK2-R206H cells); details: read-out: Cell Line (Cell Assay IC50)
T1 construct: expressed in transfected cells; host or cells: HEK293 (ATCC CRL1573), lentivirus transduction, blasticidin selection
T1 sequence (Q04771 21-509 R206H): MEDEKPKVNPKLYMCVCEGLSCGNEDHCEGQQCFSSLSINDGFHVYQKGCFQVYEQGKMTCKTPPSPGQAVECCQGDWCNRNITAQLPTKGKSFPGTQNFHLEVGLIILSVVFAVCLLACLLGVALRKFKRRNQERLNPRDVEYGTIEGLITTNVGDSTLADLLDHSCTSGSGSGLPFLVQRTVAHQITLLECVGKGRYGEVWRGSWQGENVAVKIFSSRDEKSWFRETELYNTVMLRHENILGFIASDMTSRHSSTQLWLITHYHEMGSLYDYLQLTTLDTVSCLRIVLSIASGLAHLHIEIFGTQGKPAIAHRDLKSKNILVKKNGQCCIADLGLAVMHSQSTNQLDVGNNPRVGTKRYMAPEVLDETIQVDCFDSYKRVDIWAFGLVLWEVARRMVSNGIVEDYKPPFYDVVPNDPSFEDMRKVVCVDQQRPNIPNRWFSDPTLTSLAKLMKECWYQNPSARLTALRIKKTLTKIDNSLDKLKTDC
Method in brief: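 Stable HEK293 cells expressing C-terminally FLAG-tagged human ALK2 R206H (lentiviral, blasticidin-selected) were treated with compounds in 10-point, 3-fold dilutions from 10 μM or 1 μM top, in duplicate. Smad1 Ser463/Ser465 phosphorylation was read by AlphaLISA.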

[1] = molecular target: T2, ALK2 R206H (GST-tagged mutant ALK2) (Homo sapiens, UniProt Q04771, R206H); test: ALK binding assay (LANTHASCREEN TR-FRET competitive binding, displacement of Kinase Tracer 178); details: ALK2 R206H, LANTHASCREEN TR-FRET competitive binding; read-out: Binding Assay (IC50)
T2 construct: purchased Carna Bioscience or ThermoFisher 09-148 or PV6232
T2 sequence (Q04771 21-509 R206H): T1 sequence (Q04771 21-509 R206H)

SMILES | IC50 (human ALK2 R206H) [nM] | IC50 [1] [nM]
CC(C)N1CCC[C@@H](c2ccc(-c3cc4c(N5CCN(C(=O)O[C@@H]6CCOC6)CC5)ccnn4c3)cc2)C1 [Compound 825] | 100 to 500 | < 10
CC(C)N1CCN(C)[C@@H](c2ccc(-c3cc4c(N5CCN(C(=O)C6CC6)CC5)ccnn4c3)cc2)C1 [Compound 567] | < 100 | < 10
CCOC(=O)N1CCN(c2ccnn3cc(-c4ccc(C5(C)CCN(C(C)C)CC5)cc4)cc23)CC1 [Compound 585] | < 100 | < 10
CO[C@@]1(c2ccc(-c3cc4c(N5CCN(C(=O)NC(C)C)CC5)ccnn4c3)cc2)CCCNC1 [Compound 543] | < 100 | < 10
CCOC(=O)N1CCN(c2ccnn3cc(-c4ccc([C@@]5(F)CCCN(C(C)C)C5)cc4)cc23)CC1 [Compound 611] | < 100 | < 10
O=C(C1CC1)N1CCN(c2ccnn3cc(-c4ccc(N5CCNC6(COC6)C5)cc4)cc23)CC1 [Compound 260, (4-(6-(4-(2-oxa-5,8-diazaspiro[3.5]nonan-8-yl)phenyl)pyrrolo[1,2-b]pyridazin-4-yl)piperazin-1-yl)(cyclopropyl)methanone] | 100 to 500 | < 10
CC(C)N1CC[C@@H](O)[C@H](c2ccc(-c3cc4c(N5CCN(C(=O)OC6COC6)CC5)ccnn4c3)cc2)C1 [Compound 679] | < 100 | < 10
CC(C)N1CCC[C@@H]1c1ccc(-c2cc3c(N4CCN(C(=O)C5CC5)CC4)ccnn3c2)cn1 [Compound 487] | < 100 | < 10
CCOC1(c2ccc(-c3cc4c(N5CCN(C(=O)OC[C@@H](C)F)CC5)ccnn4c3)nc2)CCN(C(C)C)CC1 [Compound 867] | < 100 | < 10
CC(C)N1CC[C@@H](c2ccc(-c3cc4c(N5CCN(C(=O)N6CC(C#N)C6)CC5)ccnn4c3)cc2)C1 [Compound 369] | < 100 | < 10
CO[C@@]1(c2ccc(-c3cc4c(N5CCN(C(=O)[C@H]6C[C@H](C#N)C6)CC5)ccnn4c3)cc2)CCCNC1 [Compound 809] | < 100 | < 10
O=C(C1CC1)N1CCN(c2ccnn3cc(-c4ccc(C5(C(F)(F)F)CCNCC5)cc4)cc23)CC1 [Compound 808] | < 100 | < 10
COCC(C)N1CCC(OC)(c2ccc(-c3cc4c(N5CCN(C(=O)C6CC6)CC5)ccnn4c3)nc2)CC1 (stereo not shown) [Compound 710] | < 100 | < 10
CCNC(=O)N1CCN(c2ccnn3cc(-c4ccc(C5CCN(C(C)C)CC5)cc4)cc23)C[C@H]1C [Compound 339] | < 100 | < 10
CCOC1(c2ccc(-c3cc4c(N5CCN(C(=O)[C@H]6C[C@H](C#N)C6)CC5)ccnn4c3)nc2)CCN(C2COC2)CC1 [Compound 890] | < 100 | < 10
CC(C)N1CC(c2ccc(-c3cc4c(N5CCN(C(=O)[C@H]6CC[C@H](C#N)CC6)CC5)ccnn4c3)cc2)C1 [Compound 406] | < 100 | < 10
CCN1CCN(c2ccc(-c3cc4c(N5CCN(C(=O)[C@@H]6C[C@H]6F)CC5)ccnn4c3)cc2)CC1 [Compound 292] | < 100 | < 10
CO[C@@]1(c2ccc(-c3cc4c(N5CCN(C(=O)C6CC6)CC5)ccnn4c3)nc2)CCCN(C(C)C)C1 [Compound 625] | < 100 | < 10
C[C@@]1(c2ccc(-c3cc4c(N5CCN(C(=O)C6CC6)CC5)ccnn4c3)cc2)CCCN1 [Compound 460] | < 100 | < 10
CC(C)N1CCC[C@H]1c1ccc(-c2cc3c(N4CCN(C(=O)C5CC5)CC4)ccnn3c2)cn1 [Compound 484] | < 100 | < 10
CC(C)N1CCCC(c2ccc(-c3cc4c(N5CCN(C(=O)C6CCC6)CC5)ccnn4c3)cc2)C1 (stereo not shown) [Compound 312] | < 100 | < 10
COC1(c2ccc(-c3cc4c(N5CCN(C(=O)OC6COC6)CC5)ccnn4c3)c(F)c2)CCNCC1 [Compound 650] | < 100 | < 10
CC(C)(O)C(N)c1ccc(-c2cc3c(N4CCN(C(=O)C5CC5)CC4)ccnn3c2)cc1 (stereo not shown) [Compound 761] | < 100 | < 10
CCNC(=O)N1CCN(c2ccnn3cc(-c4ccc([C@]5(O)CCCN(C(C)C)C5)cc4)cc23)CC1 [Compound 591] | < 100 | < 10
CCN1CCC(c2ccc(-c3cc4c(N5CCN(C(=O)N6CC(O)C6)CC5)ccnn4c3)cc2)CC1 [Compound 337] | < 100 | < 10

SMILES | IC50 (human ALK2 R206H) [nM] | IC50 [1] [nM]
CC(C)N1CCC(c2ccc(-c3cc4c(N5CCN(C(=O)OC6COC6)CC5)ccnn4c3)c(F)c2)CC1 [Compound 694] | < 100 | < 10
CC(C)N1CCC(c2ccc(-c3cc4c(N5CCN(C(=O)C6CCC6)CC5)ccnn4c3)cc2)C1 (stereo not shown) [Compound 249] | < 100 | < 10
CC(C)N1CCC(c2ccc(-c3cc4c(N5CCN(C(=O)C6CC6)CC5)ccnn4c3)cc2)CC1 [Compound 246] | < 100 | < 10
CC(C)N1C[C@@H](c2ccc(-c3cc4c(N5CCN(C(=O)C6CC6)CC5)ccnn4c3)cc2)C[C@@H]1C [Compound 508] | 100 to 500 | < 10
CCO[C@]1(c2ccc(-c3cc4c(N5CCN(C(=O)OC6COC6)CC5)ccnn4c3)nc2)CCCNC1 [Compound 818] | < 100 | < 10
CC(C)NC(=O)N1CCN(c2ccnn3cc(-c4ccc([C@H]5CN(C(C)C)CC[C@@H]5OC(F)F)cc4)cc23)CC1 [Compound 868] | < 100 | < 10
COC1(c2ccc(-c3cc4c(N5CCN(C(=O)OC6COC6)CC5)ccnn4c3)cc2)CCN([C@@H](C)COC(F)F)CC1 [Compound 896] | < 100 | < 10
O=C(C1CC(F)C1)N1CCN(c2ccnn3cc(-c4ccc(N5CCNCC5)cc4)cc23)CC1 (stereo not shown) [Compound 234] | < 100 | < 10
CCN1CCN(c2ccc(-c3cc4c(N5CCN(C(=O)C6CC6)CC5)ccnn4c3)cc2)C[C@@H]1C [Compound 265] | < 100 | < 10
O=C(C1CC1)N1CCN(c2ccnn3cc(-c4ccc(C5(F)CCNCC5)cc4)cc23)CC1 [Compound 474] | 100 to 500 | < 10
CCNC(=O)N1CCN(c2ccnn3cc(-c4ccc(N5CCN(C(C)C)CC5)cc4)cc23)CC1 [Compound 289] | < 100 | < 10
O=C(C1CC1)N1CCN(c2ccnn3cc(-c4ccc(C5(O)CCOCC5)cc4)cc23)CC1 [Compound 172] | 100 to 500 | < 10
Cc1cc([C@H]2CCN(C(C)C)C2)ccc1-c1cc2c(N3CCN(C(=O)C4CC4)CC3)ccnn2c1 [Compound 256] | 100 to 500 | < 10
CC(C)N1CCC[C@@H](c2ccc(-c3cc4c(N5CCN(C(=O)[C@H]6C[C@H](O)C6)CC5)ccnn4c3)cc2)C1 [Compound 385] | < 100 | < 10
COC1(c2ccc(-c3cc4c(N5CCN(C(=O)[C@H]6C[C@H](C#N)C6)CC5)ccnn4c3)nc2)CCN(C2COC2)CC1 [Compound 870] | < 100 | < 10
COC1(c2ccc(-c3cc4c(N5CCN(C(=O)C6CC6)CC5)ccnn4c3)nc2)CCN(C2COC2)CC1 [Compound 660] | < 100 | < 10
CCOC1(c2ccc(-c3cc4c(N5CCN(C(=O)NC(C)C)CC5)ccnn4c3)nc2)CCN(C[C@H](C)F)CC1 [Compound 861] | < 100 | < 10
COC1(c2ccc(-c3cc4c(N5CCN(C(=O)[C@H]6C[C@@H]6C#N)CC5)ccnn4c3)cc2)CCN(C(C)C)CC1 [Compound 705] | < 100 | < 10
CC(C)N1CCNC(c2ccc(-c3cc4c(N5CCN(C(=O)C6CC6)CC5)ccnn4c3)cc2)C1 (stereo not shown) [Compound 516] | < 100 | < 10
CCC(C)N1CCC(c2ccc(-c3cc4c(N5CCN(C(=O)C6CC6)CC5)ccnn4c3)cc2)CC1 (stereo not shown) [Compound 313] | < 100 | < 10
O=C(C1CC1)N1CCN(c2ccnn3cc(-c4ccc(N5CCN6CCC6C5)cc4)cc23)CC1 (stereo not shown) [Compound 196] | 100 to 500 | < 10
CCOC(=O)N1CCN(c2ccnn3cc(-c4ccc([C@@H](N)CO)cc4)cc23)CC1 [Compound 754] | < 100 | < 10
CCOC(=O)N1CCN(c2ccnn3cc(-c4ccc([C@@H]5CCCN(C(C)C)C5)cn4)cc23)CC1 [Compound 544] | < 100 | < 10
CCN1CC[C@@H](c2ccc(-c3cc4c(N5CCN(C(=O)C6CC6)CC5)ccnn4c3)cc2)C1 [Compound 148] | < 100 | < 10
O=C(C1CC1)N1CCN(c2ccnn3cc(-c4ccc([C@H]5CNCCO5)cc4)cc23)CC1 [Compound 130, (S)-cyclopropyl(4-(6-(4-(morpholin-2-yl)phenyl)pyrrolo[1,2-b]pyridazin-4-yl)piperazin-1-yl)methanone] | 100 to 500 | < 10
